Data set [1] concerns isolated rat ventricular myocytes. The data set is described as follows: Cardiomyocyte contractility assay (sarcomere shortening, IonOptix). Format: cell-based. The following applies: for Ratio of % FS 5 uM/15 uM: 5 uM versus 15 uM. As to the method: The effects of compounds on sarcomere shortening in isolated rat ventricular myocytes were assessed using the IonOptix apparatus.
Myocytes were placed in a chamber mounted on the stage of an inverted microscope and continuously superfused with oxygenated Tyrode solution containing (in millimolar): 121 NaCl, 5 KCl, 2.8 NaCH3CO2, MgCl2·6H2O, Glucose, NaHCO3, Na2HPO4. 7H2O, and 1.5 mM CaCl2). Solution was preheated at 36±1° C. and electrical-field stimulated at 1 Hz by 2 platinum electrodes connected to a Myopacer field stimulator (IonOptix Corporation) with 4 ms square-wave bipolar pulses (10 V). Cells were illuminated by the microscope light. The cell image was collected by a x40 ultraviolet epifluorescence objective, diverted to the microscope side port, where the cell image was recorded by a charge coupled device (CCD) camera (MyoCam, IonOptix Corporation), converting optical brightness (pixels) into electrical signals (voltage). The MyoCam configuration allowed acquisition of up to 240 images per second (240 Hz frame rate). Contractile properties of the myocytes were analyzed in real time by a video detector and a personal computer-based data acquisition system (Ionwizard 6.0, IonOptix Corporation). Only myocytes with clear striations, quiescent prior to pacing with a resting sarcomere length greater or equal to 1.75 μm were used, since this is presumed to represent the lower limit for healthy cells.
Sarcomere shortening was monitored in control solution (predrug) until stable recordings were obtained (baseline period). To determine the response to compounds, myocytes were first superfused for 60 seconds with Tyrode's buffer followed by at least a 5 minute—(or until steady state was reached, up to 10 min) superfusion of compound. Each cell was subjected to 2 concentrations (5 and 15 uM or 5 and 10 uM) of test compounds. For some cells, a washout period was performed after the last concentration. Duration of the washout period was variable, resulting in variability in the washout data. In separate cells, a single concentration of isoproterenol (100 nM) was applied. Data were continuously recorded using the IonOptix software. Contractility data were analyzed using Ionwizard software (IonOptix). For each cell, 10-15 contractility transients at baseline and after treatment were averaged and compared.

For data set [2], the target named is bovine skinned cardiac myofibrils (myosin) (Bos taurus (Bovine), UniProt Q9BE39). In words: Myosin inhibitory potency comparison: ATPase assay, cardiac myofibrils. Type of data set: biochemical. The following applies: pCa=6.25. As to the method:
(§1) In our experiments, bovine skinned cardiac myofibrils were isolated from the frozen bovine left ventricle as myosin's source in the ATPase assay. The calcium concentration that achieves a 50% (pCa50 or pCa=6.25) activation of the myofibril system was chosen as the final condition for assessing the activation activity according to the literature (DOI: 10.1074/jbc.M117.776815). Myofibrils ATPase activity was measured in a buffered solution containing 12 mM PIPES (piperazine-N, N′-bis(2-ethane sulfonic acid) and 2 mM magnesium chloride at pH 6.8 (PM12 buffer). Final assay conditions were 1 mg/mL of bovine cardiac myofibrils, 1:20 of stock PK/LDH (Sigma-Aldrich, Cat No. P0294-5X5ML), 50 μM ATP, 1 mM DTT (dithiothreitol), 0.75 mM NADH, 1.5 mM PEP at pCa50 (pCa=6.25). Compounds were dissolved in DMSO (dimethyl sulfoxide). Serial dilution of compounds was created such that the final desired concentration of compound would be achieved in a volume of 150 μL with a fixed DMSO concentration of 2% (v/v). 75 μL of a solution containing bovine cardiac myofibrils, PK/LDH, and calcium were added to a 96 well plate for a 7 point dose-response. In some circumstances, 10 point-response was used to repeat the ATPase assays on compounds of interest. Compounds were added to the myofibrils solution and incubated for 5 minutes. The enzymatic reaction was started with the addition of 75 μL of a solution containing ATP, PEP, NADH, compounds, and calcium. The ATPase activity was measured by reading absorbance at 340 nm in a PerkinElmer Victor Nivo plate reader at 25° C. in kinetic mode for 15 minutes using clear bottom plates. The slopes of the absorbance changes as a function of time for the first 10 minutes were normalized to slopes on the control wells containing all reagents, including DMSO, but without compounds. This normalized rate was then plotted as a function of small molecule concentration in GraphPad prism 9. The data were fitted to a four-parameter fit, and IC50 was calculated using Graphpad Prism 9.
(§2) Bovine skinned cardiac myofibrils were isolated from the frozen bovine left ventricle, and rabbit skinned skeletal myofibrils were isolated from the frozen rabbit Psoas major and minor muscles as myosin's source in the ATPase assay. The calcium concentration that achieves a 50% activation of the myofibril system (pCa=6.25 for bovine cardiac myofibrils and pCa=6 for rabbit skeletal myofibrils) was chosen as the final condition for assessing the activation activity according to the literature (DOI:10.1074/jbc.M117.776815). Rest of ATPase assay conditions are the same as illustrated in experiment 1.

Data set [3] can be described thus: Pharmacokinetic profiles in male SD rats (IV and PO). Format: in vivo, rat. The following applies: IV 1 mg/kg, PO 5 mg/kg, route for this parameter not given; for clearance / half-life / Vd: rat, plasma; for Vd: read-out: VSS. The protocol: Pharmacokinetic profile of compounds were determined by IV (1 mg/Kg) and PO (5 mg/Kg) administrations in male SD rats. Compounds were administrated with free base and formulated in 5% DMAC+25% PEG-400+70%(30% 2-HP-β-CD in water). The compounds were dosed at 1 mg/kg for intravenous and 5 mg/kg oral administration. Blood samples were collected at 0, 0.083, 0.25, 0.5, 1, 2, 4, 8 and 24 hours post dose, serial bleeding for plasma for the IV group. Blood samples were collected at 0, 0.25, 0.5, 1, 2, 4, 6, 8 and 24 hours post dose, serial bleeding for the PO group. Approximately 150 μL whole blood/time point were collected in K2EDTA tube via jugular vein. Blood sample was put on ice and centrifuged at 2000 g for 5 min to obtain plasma sample within 15 minutes. PK parameters were estimated by non-compartmental model using WinNonlin 8.2.

Data set [4] has as its system rabbit skinned skeletal myofibrils (myosin). In words: Myosin inhibitory potency comparison: ATPase assay, skeletal myofibrils. Type of data set: biochemical. The settings on record: ratio of skeletal IC50 to cardiac IC50. The protocol:
as §1, §2

The target of the next data set is bovine cardiac myosin (Bos taurus (Bovine), UniProt Q9BE39). The data set is described as follows: Myosin inhibitory potency: PK/LDH-coupled ATPase assay on bovine skinned cardiac myofibrils. The settings on record: pCa=6.25, 50 μM ATP, 25° C., read-out: myosin inhibition activity IC50. Format: biochemical. In short, it runs like this: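 Bovine left-ventricle skinned myofibrils (1 mg/mL) in PM12 buffer pH 6.8 at pCa 6.25, 50 μM ATP, PK/LDH-coupled NADH depletion read at 340 nm, 25 °C.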

Where [5] appears, read: rat ventricular myocytes, paced at 1 Hz.

Marks after values point to notes of the source that are not given here.

bovine skinned cardiac myofibrils (myosin), sequence (Q9BE39 whole entry): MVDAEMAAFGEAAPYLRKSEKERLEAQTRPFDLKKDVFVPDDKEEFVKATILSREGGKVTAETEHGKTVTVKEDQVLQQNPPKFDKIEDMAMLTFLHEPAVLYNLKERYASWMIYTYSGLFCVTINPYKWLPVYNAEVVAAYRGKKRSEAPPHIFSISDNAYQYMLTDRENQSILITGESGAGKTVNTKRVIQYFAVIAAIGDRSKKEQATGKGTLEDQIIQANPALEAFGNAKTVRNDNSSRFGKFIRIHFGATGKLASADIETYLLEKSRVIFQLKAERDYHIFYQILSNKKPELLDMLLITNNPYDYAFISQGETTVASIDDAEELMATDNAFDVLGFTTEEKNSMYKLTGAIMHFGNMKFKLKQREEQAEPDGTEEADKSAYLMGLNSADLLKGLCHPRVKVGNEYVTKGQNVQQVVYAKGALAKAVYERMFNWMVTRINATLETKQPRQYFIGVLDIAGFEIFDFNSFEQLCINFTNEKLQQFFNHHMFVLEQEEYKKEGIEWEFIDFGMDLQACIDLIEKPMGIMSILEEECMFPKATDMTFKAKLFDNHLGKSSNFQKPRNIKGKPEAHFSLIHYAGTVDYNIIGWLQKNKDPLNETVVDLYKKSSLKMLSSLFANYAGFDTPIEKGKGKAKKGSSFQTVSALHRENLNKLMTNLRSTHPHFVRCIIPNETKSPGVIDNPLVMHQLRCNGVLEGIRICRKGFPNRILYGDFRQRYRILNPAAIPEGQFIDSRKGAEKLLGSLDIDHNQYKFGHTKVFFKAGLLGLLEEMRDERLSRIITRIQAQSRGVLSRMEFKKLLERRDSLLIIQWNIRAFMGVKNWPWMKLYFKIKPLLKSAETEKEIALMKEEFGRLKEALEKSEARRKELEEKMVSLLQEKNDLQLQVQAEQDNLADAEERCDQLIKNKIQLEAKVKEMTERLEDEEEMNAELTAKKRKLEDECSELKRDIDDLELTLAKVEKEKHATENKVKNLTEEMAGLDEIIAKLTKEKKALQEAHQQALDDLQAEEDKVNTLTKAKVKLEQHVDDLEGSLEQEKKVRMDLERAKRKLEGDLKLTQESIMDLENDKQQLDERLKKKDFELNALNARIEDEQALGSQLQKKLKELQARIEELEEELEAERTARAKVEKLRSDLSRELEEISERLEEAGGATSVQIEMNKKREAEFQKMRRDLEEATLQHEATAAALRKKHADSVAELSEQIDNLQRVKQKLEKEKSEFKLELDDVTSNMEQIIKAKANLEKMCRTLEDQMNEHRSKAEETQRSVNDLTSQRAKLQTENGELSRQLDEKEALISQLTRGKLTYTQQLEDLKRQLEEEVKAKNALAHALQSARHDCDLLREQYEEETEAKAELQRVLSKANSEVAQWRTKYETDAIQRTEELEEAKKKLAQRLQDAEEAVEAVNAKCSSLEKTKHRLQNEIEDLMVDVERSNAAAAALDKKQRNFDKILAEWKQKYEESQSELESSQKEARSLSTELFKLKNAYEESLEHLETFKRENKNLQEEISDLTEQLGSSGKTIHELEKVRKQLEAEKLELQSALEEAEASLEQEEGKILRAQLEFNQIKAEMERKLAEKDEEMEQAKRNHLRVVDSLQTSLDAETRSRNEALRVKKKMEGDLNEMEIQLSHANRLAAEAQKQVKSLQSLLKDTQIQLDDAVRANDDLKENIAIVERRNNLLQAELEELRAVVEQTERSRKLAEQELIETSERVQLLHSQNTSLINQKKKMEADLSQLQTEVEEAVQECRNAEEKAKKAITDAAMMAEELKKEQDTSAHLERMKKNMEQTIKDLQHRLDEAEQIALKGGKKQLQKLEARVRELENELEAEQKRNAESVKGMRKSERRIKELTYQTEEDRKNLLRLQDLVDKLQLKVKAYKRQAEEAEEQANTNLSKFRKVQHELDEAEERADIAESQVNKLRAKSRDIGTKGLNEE
bovine skinned cardiac myofibrils (myosin), sequence (P85100 whole entry partner): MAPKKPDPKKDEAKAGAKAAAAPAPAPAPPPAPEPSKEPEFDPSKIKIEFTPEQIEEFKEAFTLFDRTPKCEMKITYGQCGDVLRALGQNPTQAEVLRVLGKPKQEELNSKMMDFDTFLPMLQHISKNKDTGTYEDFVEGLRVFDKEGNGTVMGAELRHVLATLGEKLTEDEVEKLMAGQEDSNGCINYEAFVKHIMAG
bovine skinned cardiac myofibrils (myosin), sequence (Q3SZE5 whole entry partner): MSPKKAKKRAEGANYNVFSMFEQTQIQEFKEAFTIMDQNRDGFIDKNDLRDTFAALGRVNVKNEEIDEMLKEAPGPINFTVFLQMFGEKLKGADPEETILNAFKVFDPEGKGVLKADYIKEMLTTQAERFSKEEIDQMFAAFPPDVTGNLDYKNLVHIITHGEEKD
bovine cardiac myosin, sequence (Q9BE39 whole entry): as the sequence (Q9BE39 whole entry) above
bovine cardiac myosin, sequence (P85100 whole entry partner): as the sequence (P85100 whole entry partner) above
bovine cardiac myosin, sequence (Q3SZE5 whole entry partner): as the sequence (Q3SZE5 whole entry partner) above

As a reminder, the IC50 is the midpoint of a concentration-inhibition curve. What is called half-life is how long it takes for the measured level to halve. Low readings indicate rapid decline, high ones slow decline. Turning to `Cc1cccc([C@H](C)Nc2nc(=O)n(C3CCOCC3)c(=O)[nH]2)c1` [Example 4], the “Ratio of % FS 5 uM/10 uM” value in data set [1] (5 uM versus 10 uM (cell marked *)) is given as 1.7*. For the same compound, the “% FS (% reduction from baseline) at 5 uM” value in data set [1] (setting [5]) is on record as 71.2 +/− 7.6%. In data set [1] (10 uM (cell marked *), rat ventricular myocytes, paced at 1 Hz), the “% FS (% reduction from baseline) at 10 uM” value is 42.4 +/− 4.2* %. In data set [2], this compound returned a 50% inhibitory concentration (IC50) of 0.66 µM. Further, in data set [3], the DNAUC turned out to be 2299.6 ng·h/mL, the clearance was 5.5 mL/min/kg, the half-life was 3.35 h and the Vd is 1.17 L/kg.

As for `CC(C)n1c(=O)nc(N[C@@H](C)C2CCCCC2)[nH]c1=O` [Example 45], in data set [4], the Skeleta/Cardiac was 5.36. Further, the IC50 was determined as 7.58 µM in data set [2] and 2.8 µM on bovine cardiac myosin.

With `C[C@H](Nc1nc(=O)n(C2CCOCC2)c(=O)[nH]1)c1ccc(OC(F)(F)F)cc1` [Example 152], the Skeleta/Cardiac in data set [4] stood at 2.39. Moreover, the “Ratio of % FS 5 uM/15 uM” value in data set [1] was 2.4. Further, the “% FS (% reduction from baseline) at 5 uM” value in data set [1] (setting [5]) is reported as 62.9 +/− 6.2%. Further, the “% FS (% reduction from baseline) at 15uM” value in data set [1] (setting [5]) is 26.7 +/− 6.4%. Besides, the figures for the IC50 (in data set [2]; at bovine cardiac myosin) were 1.79 µM and 1.21 µM, respectively.

For the compound `Cc1cc([C@H](C)Nc2nc(=O)n(C3CCOCC3)c(=O)[nH]2)ccc1F` [Example 156], in data set [1], the “Ratio of % FS 5 uM/15 uM” value is on record as 2.4. In addition, in data set [1] (setting [5]), the “% FS (% reduction from baseline) at 5 uM” value is 61.5 +/− 5.2% and the “% FS (% reduction from baseline) at 15uM” value is 26.1 +/− 4%. In data set [3], the DNAUC stood at 5052.2 ng·h/mL, the clearance is 3.17 mL/min/kg, the half-life is 5.47 h and the Vd was 0.97 L/kg. Also, at bovine cardiac myosin, the IC50 was found to be 1.13 µM.

Take `C[C@H](Nc1nc(=O)n(C2CCOCC2)c(=O)[nH]1)c1ccc(F)cc1Cl` [Example 162]: the “Ratio of % FS 5 uM/15 uM” value in data set [1] is 1.9. For the same compound, in data set [1] (setting [5]), the “% FS (% reduction from baseline) at 5 uM” value is 60.8 +/− 12.7% and the “% FS (% reduction from baseline) at 15uM” value is given as 32.2 +/− 5.3%. Further, in data set [3], the DNAUC amounted to 4195.1 ng·h/mL, the clearance was 4.17 mL/min/kg, the half-life is 3.74 h and the Vd was found to be 0.97 L/kg.

Take `C[C@H](Nc1nc(=O)n(C2CCOCC2)c(=O)[nH]1)c1ccc(Cl)c(Cl)c1` [Example 165]: in data set [3], the DNAUC came out at 11463.4 ng·h/mL, the clearance was 1.67 mL/min/kg, the half-life was 4.58 h and the Vd is 0.46 L/kg. Also, the IC50 on bovine cardiac myosin worked out at 0.2 µM.

Regarding `Cc1ccc([C@H](C)Nc2nc(=O)n(C3CCOCC3)c(=O)[nH]2)c(C)c1` [Example 168], the “Ratio of % FS 5 uM/15 uM” value in data set [1] is reported as 2.2. Moreover, in data set [1] (setting [5]), the “% FS (% reduction from baseline) at 5 uM” value was 54.3 +/− 9.3% and the “% FS (% reduction from baseline) at 15uM” value is 24.3 +/− 8.5%. Further, in data set [3], the DNAUC stood at 13412.2 ng·h/mL, the clearance is 1.33 mL/min/kg, the half-life is 3.89 h and the Vd stood at 0.32 L/kg. Further, the IC50 on bovine cardiac myosin is 1.7 µM.

Turning to `C[C@H](Nc1nc(=O)n(C2CCOCC2)c(=O)[nH]1)c1cc(F)cc(Cl)c1` [Example 172], in data set [1], the “Ratio of % FS 5 uM/15 uM” value was 2.2. In addition, in data set [1] (setting [5]), the “% FS (% reduction from baseline) at 5 uM” value is recorded as 63.6 +/− 3.3% and the “% FS (% reduction from baseline) at 15uM” value is given as 28.9 +/− 8.7%. In data set [3], the DNAUC turned out to be 7631.0 ng·h/mL, the clearance is 2.5 mL/min/kg, the half-life is 3.95 h and the Vd worked out at 0.57 L/kg. In addition, the IC50 on bovine cardiac myosin was 0.47 µM.

On to `C[C@H](Nc1nc(=O)n(C2CCOCC2)c(=O)[nH]1)c1cccc(C(F)(F)F)c1` [Example 252], for which, in data set [3], the DNAUC was 3959.8 ng·h/mL, the clearance is 3.5 mL/min/kg, the half-life was 4.41 h and the Vd was found to be 0.94 L/kg. Moreover, the concentration for half-maximal inhibition (IC50) at bovine cardiac myosin turned out to be 6.89 µM.

Regarding `C[C@@H](Nc1nc(=O)n(C2CCOCC2)c(=O)[nH]1)c1ccc(C(F)(F)F)cc1` [Example 333], the IC50 at bovine cardiac myosin came out at 1.03 µM.

As for `C[C@@H](Nc1nc(=O)n(C2CCOCC2)c(=O)[nH]1)c1ccc(C2CC2)cc1` [Example 334], the IC50 on bovine cardiac myosin turned out to be 0.7 µM.

For `Cc1cccc([C@@H](Nc2nc(=O)n(C3CCOCC3)c(=O)[nH]2)C2CC2)c1` [Example 335], the concentration for half-maximal inhibition (IC50) on bovine cardiac myosin came to 0.62 µM.

With `C[C@H](Nc1nc(=O)n(C2CCOCC2)c(=O)[nH]1)c1cccc(C2CN(C(=O)OC(C)(C)C)C2)c1` [Example 336], the IC50 at bovine cardiac myosin is 1.16 µM.

On to `CC(C)n1c(=O)nc(N[C@@H](C)c2cccc([C@H](C)O)c2)[nH]c1=O` [Example 342], for which the IC50 on bovine cardiac myosin was 2.07 µM.

As to `CC(C)n1c(=O)nc(N[C@@H](C)c2cccc([C@H](C)O)c2)[nH]c1=O` [Example 343], the IC50 on bovine cardiac myosin was 1.51 µM.

Consider `C[C@H](O)c1cccc([C@H](C)Nc2nc(=O)n(C3CCOCC3)c(=O)[nH]2)c1` [Example 344], for which the IC50 at bovine cardiac myosin worked out at 0.55 µM.

Consider `CC(C)[C@H](O)c1cccc([C@H](C)Nc2nc(=O)n(C3CCOCC3)c(=O)[nH]2)c1` [Example 345], for which the IC50 on bovine cardiac myosin was found to be 0.79 µM.

On to `C[C@H](Nc1nc(=O)n(C2CCOCC2)c(=O)[nH]1)c1cccc([C@@H](O)C(F)(F)F)c1` [Example 346], for which the IC50 at bovine cardiac myosin worked out at 2.58 µM.

For the compound `CO[C@H]1COCC[C@@H]1n1c(=O)nc(N[C@@H](C)c2cccc(C)c2)[nH]c1=O` [Example 347], at bovine cardiac myosin, the IC50 was found to be 2.33 µM.

As for `C[C@H](Nc1nc(=O)n(C2CCOCC2)c(=O)[nH]1)c1cccc(C(O)C(F)(F)F)c1` (stereo partly drawn) [Example 348], the IC50 on bovine cardiac myosin amounted to 2.45 µM.
